# From ChEMBL document CHEMBL1201862, “PubChem BioAssay data set” (2004)
# Active and inactive are the calls of the source.
# Key:
# Large T antigen = Large T antigen (Simian virus 40, UniProt P03070); format: functional, Betapolyomavirus macacae;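 note: Confirmatory-stage PubChem screen for compounds that inhibit SV40 T antigen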
# [1] = target: T1, Rac GTPase-activating protein 1 (Homo sapiens, UniProt Q9H0H5); assay: blockers of MgcRacGAP-driven Rac1 GTP hydrolysis – biochemical, ADP Hunter fluorescence, primary and confirmatory, confirmation (AID 624330); format: functional
# T1 sequence (Q9H0H5 whole entry): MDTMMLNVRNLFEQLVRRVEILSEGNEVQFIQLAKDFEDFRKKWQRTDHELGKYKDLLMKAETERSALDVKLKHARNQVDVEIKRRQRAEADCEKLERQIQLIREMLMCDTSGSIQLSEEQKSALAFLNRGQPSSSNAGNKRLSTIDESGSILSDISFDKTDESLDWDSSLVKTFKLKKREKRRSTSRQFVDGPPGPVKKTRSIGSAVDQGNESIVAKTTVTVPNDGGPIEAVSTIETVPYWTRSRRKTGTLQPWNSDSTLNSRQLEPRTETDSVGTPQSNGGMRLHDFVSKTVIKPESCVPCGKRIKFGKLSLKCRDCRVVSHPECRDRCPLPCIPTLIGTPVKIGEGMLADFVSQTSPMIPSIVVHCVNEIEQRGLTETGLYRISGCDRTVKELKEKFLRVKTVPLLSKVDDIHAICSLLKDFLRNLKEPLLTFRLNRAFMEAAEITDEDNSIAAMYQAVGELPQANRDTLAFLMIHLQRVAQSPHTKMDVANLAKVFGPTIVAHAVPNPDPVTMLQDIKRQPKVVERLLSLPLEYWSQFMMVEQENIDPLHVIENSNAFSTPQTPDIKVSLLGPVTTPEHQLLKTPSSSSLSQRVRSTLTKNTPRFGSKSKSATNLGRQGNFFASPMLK
# [2] = target: Eukaryotic translation initiation factor 4E (Mus musculus, UniProt P63073); assay: blockers of eIF4G binding by eIF4E – biochemical, TR-FRET, dose response (AID 855); format: functional;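 note: potency for disrupting eIF4E binding to eIF4GI seen as loss of FRET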
# [3] = target: T2, Corticotropin-releasing factor receptor 2/Corticotropin-releasing factor-binding protein (Homo sapiens, UniProt P24387+Q13324); assay: Dose Response confirmation of uHTS hits for small molecule antagonists of the CRF-binding protein and CRF-R2 receptor complex.; format: functional; details: read-out: IC50_Mean
# T2 sequence (Q13324 whole entry): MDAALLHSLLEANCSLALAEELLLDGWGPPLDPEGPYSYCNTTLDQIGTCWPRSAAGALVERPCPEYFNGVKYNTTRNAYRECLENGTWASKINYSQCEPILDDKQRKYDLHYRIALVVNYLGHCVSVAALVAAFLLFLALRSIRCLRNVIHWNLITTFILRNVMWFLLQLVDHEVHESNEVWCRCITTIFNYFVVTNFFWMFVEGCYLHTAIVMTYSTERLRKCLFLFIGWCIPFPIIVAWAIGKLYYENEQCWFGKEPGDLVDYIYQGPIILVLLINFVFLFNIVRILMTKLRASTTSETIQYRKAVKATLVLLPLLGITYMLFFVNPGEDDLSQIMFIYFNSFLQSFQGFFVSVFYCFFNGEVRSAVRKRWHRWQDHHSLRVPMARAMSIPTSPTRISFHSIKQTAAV
# T2 sequence (P24387 whole entry): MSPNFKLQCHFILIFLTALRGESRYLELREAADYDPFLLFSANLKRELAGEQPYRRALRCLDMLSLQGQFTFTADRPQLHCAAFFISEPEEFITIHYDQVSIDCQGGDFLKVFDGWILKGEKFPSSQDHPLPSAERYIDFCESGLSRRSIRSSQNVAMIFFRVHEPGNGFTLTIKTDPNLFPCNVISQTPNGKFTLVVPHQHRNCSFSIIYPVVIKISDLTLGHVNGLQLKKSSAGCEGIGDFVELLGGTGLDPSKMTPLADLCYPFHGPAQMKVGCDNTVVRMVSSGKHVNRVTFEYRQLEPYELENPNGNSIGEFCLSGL
# [4] = target: T3, Calpain-2 catalytic subunit (Sus scrofa, UniProt P43367); assay: m-calpain protease blockers, concentration series – biochemical, fluorogenic peptide substrate, dose response (AID 1420); format: functional
# T3 sequence (P43367 whole entry): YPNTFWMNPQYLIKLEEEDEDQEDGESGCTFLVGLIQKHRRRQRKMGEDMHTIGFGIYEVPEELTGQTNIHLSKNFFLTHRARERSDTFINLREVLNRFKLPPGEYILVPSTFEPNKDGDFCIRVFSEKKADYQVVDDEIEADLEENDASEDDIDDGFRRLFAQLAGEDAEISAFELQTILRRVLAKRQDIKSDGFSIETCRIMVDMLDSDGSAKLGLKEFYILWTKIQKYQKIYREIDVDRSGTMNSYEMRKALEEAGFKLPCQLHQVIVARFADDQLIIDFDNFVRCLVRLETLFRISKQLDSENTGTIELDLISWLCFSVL
# [5] = target: T2, Corticotropin-releasing factor receptor 2/Corticotropin-releasing factor-binding protein; assay: activators of CRF receptor 2 with binding protein – uHTS hits, confirmation (AID 602473); format: functional; details: read-out: EC50_Mean
# [6] = target: T4, Zinc finger protein mex-5 (Caenorhabditis elegans, UniProt Q9XUB2); assay: potency of MEX-5 RNA-binding blockers – biochemical, C. elegans, fluorescence polarization, dose response (AID 1960)
# T4 sequence (Q9XUB2 whole entry): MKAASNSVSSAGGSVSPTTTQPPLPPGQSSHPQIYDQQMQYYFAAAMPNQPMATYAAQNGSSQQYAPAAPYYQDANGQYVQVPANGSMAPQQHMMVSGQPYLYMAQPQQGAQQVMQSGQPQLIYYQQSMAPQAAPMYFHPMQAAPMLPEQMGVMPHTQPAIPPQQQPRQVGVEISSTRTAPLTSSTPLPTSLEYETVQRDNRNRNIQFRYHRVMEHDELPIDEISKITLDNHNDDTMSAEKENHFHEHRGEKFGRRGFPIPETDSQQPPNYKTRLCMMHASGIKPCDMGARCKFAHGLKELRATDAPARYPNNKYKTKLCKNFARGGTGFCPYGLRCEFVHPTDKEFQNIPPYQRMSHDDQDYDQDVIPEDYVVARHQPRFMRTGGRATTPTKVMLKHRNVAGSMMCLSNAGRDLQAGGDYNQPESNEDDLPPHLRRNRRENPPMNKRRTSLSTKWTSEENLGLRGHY
# [7] = target: T5, RNA-binding protein pos-1 (Caenorhabditis elegans, UniProt G5EF15); assay: disruptors of C. elegans POS-1 RNA interaction – biochemical, fluorescence polarization, dose response (AID 1964);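 note: purified POS-1 fused to maltose binding protein made in E. coli; potency of compounds blocking POS-1 binding to fluorescent RNA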
# T5 sequence (G5EF15 whole entry): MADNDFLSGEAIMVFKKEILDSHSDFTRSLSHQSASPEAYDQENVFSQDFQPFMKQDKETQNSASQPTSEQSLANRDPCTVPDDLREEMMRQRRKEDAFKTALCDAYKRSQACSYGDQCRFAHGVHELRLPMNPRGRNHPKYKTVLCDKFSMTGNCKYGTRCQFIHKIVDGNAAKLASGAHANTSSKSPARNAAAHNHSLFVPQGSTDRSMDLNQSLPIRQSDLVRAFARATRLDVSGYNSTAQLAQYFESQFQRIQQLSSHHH
# Cytochrome P450 2D6 = Cytochrome P450 2D6 (Homo sapiens, UniProt P10635);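 note: CYP2D6 member of a cytochrome P450 panel assay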
# Cytochrome P450 2C9 = Cytochrome P450 2C9 (Homo sapiens, UniProt P11712)
# Cytochrome P450 2C19 = Cytochrome P450 2C19 (Homo sapiens, UniProt P33261); assay: Cytochrome panel assay with activity outcomes. Panel member name: p450-cyp2c19 Compounds with AC50 equal or less than 10 uM are considered active; format: functional; details: read-out: AC50
# BJ [8] = assay: BJ-TERT-LT-ST fibroblast viability loss – cell-based, RAS-independent, luminescence, dose response (AID 1935); format: functional; details: Homo sapiens;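 note: BJ fibroblasts immortalized with TERT plus LT and ST oncogenes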
# BJ [9] = assay: cells; format: functional, cell-based; details: Homo sapiens
# [10] = DRD fibroblast viability loss – cell-based, non-viral oncogenic, luminescence, dose response (AID 1934); format: functional; details: Homo sapiens
# BJ [11] = assay: BJ-TERT fibroblast viability loss – cell-based, RAS-independent, luminescence, dose response (AID 1933); format: functional; details: Homo sapiens
# [12] = target: FAD-linked sulfhydryl oxidase ALR (Homo sapiens, UniProt P55789); assay: ALR-catalysed DTT oxidation blockers – biochemical, H2O2 detection, luminescence, cherry-pick, dose response (AID 493248)
# Genome polyprotein = Genome polyprotein (dengue virus type 2, UniProt P29990); assay: flavivirus cap methylation enzyme inhibition – biochemical, confirmation dose response, primary screen (AID 588689); format: functional
# INS1 = assay: INS-1E survival protection against cytokine death – cell-based, luminescence, retest, dose response (AID 449756); format: functional; details: Rattus norvegicus;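 note: cell death triggered by IL-1 beta plus TNF-alpha plus IFN-gamma mixture; protective hits raise ATP signal compared with cytokine alone wells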
# [13] = target: Luciferin 4-monooxygenase (Photinus pyralis, UniProt P08659); assay: inhibition of purified Photinus pyralis luciferase – biochemical, luminescence, dose response (AID 1891)
# [14] = Luminescence Cell-Based Dose Confirmation HTS to Identify Inhibitors of Platelet Dense Granule Release. [Related pubchem assays: 1663 (Primary HTS), 1678 (Summary of Project)]; format: functional
# [15] = system: Streptococcus sp. 'group A'; assay: Streptococcus pyogenes SK(-)GAS viability under kanamycin – luminescence, BacTiterGlo, confirmation, counter-screen for streptokinase expression inhibitor project, dose response (AID 1900); format: functional, organism-based
# Streptococcus = assay: GAS UMAA2166 growth inhibition – luminescence, BacTiterGlo, counter-screen for streptokinase expression inhibitor project, dose response (AID 1915); format: functional, organism-based;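 note: potency for reduction of bacterial viability or growth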
# Streptokinase A = target: T6, Streptokinase A (Streptococcus pyogenes serotype M1, UniProt P10520); assay: viability-normalized secreted streptokinase activity reduction – plasminogen activation absorbance, OD405, dose response (AID 1914); format: functional, Streptococcus pyogenes M1 GAS;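 note: secreted streptokinase activity via plasminogen activation per viability signal from cell pellet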
# T6 sequence (P10520 whole entry): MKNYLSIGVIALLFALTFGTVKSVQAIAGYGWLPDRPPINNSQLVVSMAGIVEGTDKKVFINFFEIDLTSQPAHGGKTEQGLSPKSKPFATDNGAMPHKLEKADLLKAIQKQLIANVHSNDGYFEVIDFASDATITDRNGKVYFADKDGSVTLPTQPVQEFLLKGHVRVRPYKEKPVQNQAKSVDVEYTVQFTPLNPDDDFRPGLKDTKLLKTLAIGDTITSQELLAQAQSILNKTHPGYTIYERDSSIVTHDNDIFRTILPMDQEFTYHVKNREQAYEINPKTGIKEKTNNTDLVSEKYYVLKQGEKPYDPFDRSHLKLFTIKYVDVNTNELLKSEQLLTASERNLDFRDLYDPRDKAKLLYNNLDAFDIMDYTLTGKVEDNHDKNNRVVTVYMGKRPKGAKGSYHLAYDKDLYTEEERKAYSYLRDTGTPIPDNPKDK
# [16] = Luminescence Cell-Based Dose Retest to Confirm Inhibitors of Cancer Stem Cells. [Related pubchem assays (depositor defined):AID2717, AID2721]; format: functional; details: Homo sapiens
# Cytochrome P450 2C9, sequence (P11712 whole entry): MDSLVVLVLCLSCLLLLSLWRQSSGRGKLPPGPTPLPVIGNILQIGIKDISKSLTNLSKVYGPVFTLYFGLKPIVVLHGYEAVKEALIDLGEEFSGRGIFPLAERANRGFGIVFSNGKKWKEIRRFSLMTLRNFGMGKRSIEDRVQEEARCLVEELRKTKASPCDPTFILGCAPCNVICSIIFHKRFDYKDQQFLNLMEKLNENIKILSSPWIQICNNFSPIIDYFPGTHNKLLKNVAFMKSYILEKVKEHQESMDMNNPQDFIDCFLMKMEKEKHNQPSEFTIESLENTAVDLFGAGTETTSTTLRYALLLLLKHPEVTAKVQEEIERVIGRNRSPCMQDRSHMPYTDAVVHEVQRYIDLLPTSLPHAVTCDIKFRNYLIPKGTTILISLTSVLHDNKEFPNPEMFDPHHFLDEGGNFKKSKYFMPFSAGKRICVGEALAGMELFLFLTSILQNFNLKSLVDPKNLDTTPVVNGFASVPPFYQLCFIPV
# Large T antigen, sequence (P03070 whole entry): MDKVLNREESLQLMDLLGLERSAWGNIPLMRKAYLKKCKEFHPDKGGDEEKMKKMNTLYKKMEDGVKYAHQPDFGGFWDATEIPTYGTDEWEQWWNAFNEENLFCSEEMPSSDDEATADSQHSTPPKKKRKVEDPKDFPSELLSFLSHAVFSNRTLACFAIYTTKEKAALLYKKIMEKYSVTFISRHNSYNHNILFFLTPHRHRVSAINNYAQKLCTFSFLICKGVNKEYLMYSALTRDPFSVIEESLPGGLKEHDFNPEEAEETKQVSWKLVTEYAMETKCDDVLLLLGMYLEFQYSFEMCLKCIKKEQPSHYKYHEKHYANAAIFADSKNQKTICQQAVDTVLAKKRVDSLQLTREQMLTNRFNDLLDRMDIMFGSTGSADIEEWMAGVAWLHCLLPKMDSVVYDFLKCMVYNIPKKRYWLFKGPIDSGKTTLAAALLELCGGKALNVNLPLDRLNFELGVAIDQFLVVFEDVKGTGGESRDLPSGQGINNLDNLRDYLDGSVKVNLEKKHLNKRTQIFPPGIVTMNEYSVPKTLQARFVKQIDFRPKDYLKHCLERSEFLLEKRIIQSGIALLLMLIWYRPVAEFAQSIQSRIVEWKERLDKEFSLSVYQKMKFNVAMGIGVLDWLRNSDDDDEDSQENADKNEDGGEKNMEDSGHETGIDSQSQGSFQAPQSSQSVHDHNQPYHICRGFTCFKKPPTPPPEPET
# Eukaryotic translation initiation factor 4E, sequence (P63073 whole entry): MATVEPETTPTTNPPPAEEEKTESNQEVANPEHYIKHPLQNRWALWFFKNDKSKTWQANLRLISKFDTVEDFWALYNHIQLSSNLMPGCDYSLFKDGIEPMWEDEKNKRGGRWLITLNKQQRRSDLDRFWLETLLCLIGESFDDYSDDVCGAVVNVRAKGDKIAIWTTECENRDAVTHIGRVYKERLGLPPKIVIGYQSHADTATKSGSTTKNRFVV
# Cytochrome P450 2D6, sequence (P10635 whole entry): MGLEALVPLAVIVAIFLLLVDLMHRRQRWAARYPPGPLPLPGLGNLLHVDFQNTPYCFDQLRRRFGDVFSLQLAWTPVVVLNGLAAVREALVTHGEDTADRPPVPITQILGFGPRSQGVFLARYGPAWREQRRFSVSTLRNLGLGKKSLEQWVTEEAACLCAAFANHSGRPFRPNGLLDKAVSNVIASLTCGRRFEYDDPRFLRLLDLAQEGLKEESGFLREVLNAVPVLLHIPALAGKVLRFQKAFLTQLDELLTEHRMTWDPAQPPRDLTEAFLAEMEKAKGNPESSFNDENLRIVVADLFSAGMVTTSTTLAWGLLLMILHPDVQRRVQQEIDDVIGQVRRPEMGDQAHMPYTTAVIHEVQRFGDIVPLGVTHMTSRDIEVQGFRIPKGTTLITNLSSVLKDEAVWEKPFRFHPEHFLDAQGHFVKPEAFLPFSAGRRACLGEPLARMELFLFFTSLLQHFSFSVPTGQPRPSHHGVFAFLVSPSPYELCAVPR
# Cytochrome P450 2C19, sequence (P33261 whole entry): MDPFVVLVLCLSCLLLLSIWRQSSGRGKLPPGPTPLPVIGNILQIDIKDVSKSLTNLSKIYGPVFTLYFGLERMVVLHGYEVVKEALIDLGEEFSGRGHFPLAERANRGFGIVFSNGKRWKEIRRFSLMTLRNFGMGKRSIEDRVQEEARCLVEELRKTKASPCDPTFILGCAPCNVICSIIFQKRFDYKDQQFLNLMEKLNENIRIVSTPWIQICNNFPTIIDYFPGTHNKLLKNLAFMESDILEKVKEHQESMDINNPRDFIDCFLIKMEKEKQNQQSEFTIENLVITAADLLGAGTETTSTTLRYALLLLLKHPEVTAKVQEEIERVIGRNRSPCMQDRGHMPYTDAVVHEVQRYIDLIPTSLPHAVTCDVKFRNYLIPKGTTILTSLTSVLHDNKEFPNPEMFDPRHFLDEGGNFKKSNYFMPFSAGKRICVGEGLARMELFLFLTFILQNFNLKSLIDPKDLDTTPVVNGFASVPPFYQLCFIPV
# FAD-linked sulfhydryl oxidase ALR, sequence (P55789 whole entry): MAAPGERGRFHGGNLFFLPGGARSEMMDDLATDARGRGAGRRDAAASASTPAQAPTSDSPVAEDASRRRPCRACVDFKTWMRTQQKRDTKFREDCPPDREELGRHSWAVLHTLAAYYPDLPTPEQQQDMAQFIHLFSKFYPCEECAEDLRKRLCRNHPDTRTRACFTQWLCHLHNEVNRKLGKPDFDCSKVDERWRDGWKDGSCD
# Luciferin 4-monooxygenase, sequence (P08659 whole entry): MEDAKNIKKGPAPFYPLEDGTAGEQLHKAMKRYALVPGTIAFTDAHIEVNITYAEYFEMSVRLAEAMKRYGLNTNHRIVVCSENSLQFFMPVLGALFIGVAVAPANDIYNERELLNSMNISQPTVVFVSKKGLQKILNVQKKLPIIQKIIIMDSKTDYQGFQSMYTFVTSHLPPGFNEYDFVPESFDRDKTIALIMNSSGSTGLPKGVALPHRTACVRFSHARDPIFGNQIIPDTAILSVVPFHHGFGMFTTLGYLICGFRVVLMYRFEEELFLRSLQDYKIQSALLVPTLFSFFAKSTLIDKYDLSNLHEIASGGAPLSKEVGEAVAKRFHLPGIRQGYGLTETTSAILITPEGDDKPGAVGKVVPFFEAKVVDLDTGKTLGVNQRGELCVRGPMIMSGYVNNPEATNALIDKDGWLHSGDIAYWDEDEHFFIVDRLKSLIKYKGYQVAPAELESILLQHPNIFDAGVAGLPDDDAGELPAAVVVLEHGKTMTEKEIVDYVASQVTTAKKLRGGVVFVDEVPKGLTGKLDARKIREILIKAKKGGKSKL
# Genome polyprotein, sequence (P29990 2492-3391 limits assumed): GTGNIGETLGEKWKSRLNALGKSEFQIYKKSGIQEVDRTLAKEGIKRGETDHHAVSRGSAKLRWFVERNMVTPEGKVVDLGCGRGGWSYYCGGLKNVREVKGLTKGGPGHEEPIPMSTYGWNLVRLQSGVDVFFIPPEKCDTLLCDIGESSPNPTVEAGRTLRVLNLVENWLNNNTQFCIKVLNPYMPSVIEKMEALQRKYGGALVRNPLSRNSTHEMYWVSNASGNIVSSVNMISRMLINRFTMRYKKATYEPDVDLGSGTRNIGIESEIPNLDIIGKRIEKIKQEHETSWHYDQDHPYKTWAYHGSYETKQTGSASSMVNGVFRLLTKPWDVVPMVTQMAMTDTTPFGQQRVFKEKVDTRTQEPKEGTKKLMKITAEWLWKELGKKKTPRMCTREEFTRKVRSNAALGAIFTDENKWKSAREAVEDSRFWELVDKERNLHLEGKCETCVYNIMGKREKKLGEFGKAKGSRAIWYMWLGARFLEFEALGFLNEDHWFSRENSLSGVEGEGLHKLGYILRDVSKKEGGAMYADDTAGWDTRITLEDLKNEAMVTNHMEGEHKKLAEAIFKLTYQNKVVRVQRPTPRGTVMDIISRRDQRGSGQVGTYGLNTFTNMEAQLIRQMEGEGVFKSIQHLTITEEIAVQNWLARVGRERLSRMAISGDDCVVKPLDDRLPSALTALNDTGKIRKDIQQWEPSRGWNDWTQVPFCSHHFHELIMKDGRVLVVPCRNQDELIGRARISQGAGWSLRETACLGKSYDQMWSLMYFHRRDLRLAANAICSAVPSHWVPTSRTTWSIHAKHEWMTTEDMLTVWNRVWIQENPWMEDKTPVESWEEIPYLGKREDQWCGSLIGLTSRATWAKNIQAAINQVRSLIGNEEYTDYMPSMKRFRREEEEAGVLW
smiles,measurement,setting,value
CCN(CC)c1ccc(/C=N/N2CCOCC2)cc1,IC50,Large T antigen,5.98 µM (active)
same,IC50,[1],40.8 µM (active)
COc1ccccc1CNc1nc(-c2cc(C)n(C)c2C)cs1,IC50,[2],50 µM (inactive)
Cc1cccc(NC(=O)c2cc(S(=O)(=O)c3ccccc3)ccc2Cl)c1,IC50,[3],3.47 µM (active)
same,IC50,[4],7.13 µM (not active)
same,EC50,[5],> 53 µM (inactive)
CCOc1ccc(N2C(=O)/C(=C/c3ccc(C)o3)C(=O)NC2=S)cc1,EC50,[6],> 300 µM (not active)
same,IC50,Large T antigen,49.9 µM (active)
same,EC50,[7],> 300 µM (not active)
CN1CCN(c2cc(N3CCCC3)c([N+](=O)[O-])cc2F)CC1,AC50,Cytochrome P450 2D6,14.1 µM (inconclusive)
same,AC50,Cytochrome P450 2C9,100 nM (inconclusive)
CN(C)c1ccc(NC(N)=S)cc1,IC50,Large T antigen,7.29 µM (active)
COc1cccc(-c2ccc3ncnc(NCc4ccc(OC)cc4OC)c3c2)c1,AC50,Cytochrome P450 2D6,20 µM (inconclusive)
same,AC50,Cytochrome P450 2C9,501 nM (inconclusive)
CN(C)c1ccc2nc3c(C(=O)O)cc(=O)c(O)c-3oc2c1,AC50,Cytochrome P450 2C19,2.51 µM (inconclusive)
same,AC50,Cytochrome P450 2D6,3.16 µM (inconclusive)
Cn1nccc1C(=O)Nc1ccc(Cl)cc1,AC50,Cytochrome P450 2D6,0.282 µM (inconclusive)
Cc1c(C(=O)N2CCCCC2)nn(-c2ccc(Cl)cc2)c(=O)c1C#N,IC50,[2],50 µM (inactive)
O=S1(=O)N=C(Nc2ccc(O)cc2)c2ccccc21,IC50,Large T antigen,5.09 µM (active)
same,IC50,[1],22.3 µM (active)
Cc1cc(N2CCN(Cc3cn(C)nc3-c3ccccc3F)CC2)cc(C)n1,EC50,BJ [8],14.9 µM (active)
same,EC50,BJ [9],101 µM (inconclusive)
same,EC50,[10],16.3 µM (inconclusive)
same,EC50,BJ [11],10.1 µM (active)
Sc1nnc(-c2ccco2)n1/N=C/C(Cl)=C/c1ccccc1,AC50,[12],798 nM (active)
same,IC50,Genome polyprotein,62.7 µM (active)
Nc1c(N(CCC2=CCCCC2)C(=O)COc2ccc(F)cc2)c(=O)[nH]c(=O)n1Cc1ccccc1,AC50,INS1,4.49 µM (active)
COc1cc(NC(=O)c2ccccc2)c(OC)cc1NC(=O)CSc1nc(O)cc(C)c1C#N,EC50,[13],> 112 µM (not active)
same,EC50,BJ [8],> 150 µM (not active)
same,EC50,[14],1.21 µM (active)
same,EC50,BJ [9],36 µM (inconclusive)
same,EC50,[10],34.7 µM (active)
same,EC50,BJ [11],73.6 µM (inconclusive)
Cc1cc(NC(=O)c2noc3c2CCc2ccccc2-3)n(-c2ccccc2)n1,IC50,[2],> 64 µM (inactive)
CCCCC(CC)CN1C(=O)/C(=C/c2ccncc2)SC1=S (stereo unspecified),EC50,[15],2.59 µM (active)
same,EC50,Streptococcus,9.05 µM (active)
same,EC50,Streptokinase A,> 150 µM (not active)
same,EC50,BJ [8],> 150 µM (not active)
same,EC50,BJ [9],> 150 µM (not active)
same,AC50,INS1,17.7 µM (active)
same,AC50,[16],7.84 µM (active)
same,EC50,[10],> 150 µM (not active)
same,EC50,BJ [11],> 150 µM (not active)
COc1cc(/C=N/NC(=O)C(=O)NCC2CCCO2)ccc1O (stereo unspecified),IC50,Large T antigen,11.7 µM (active)
same,IC50,[1],32.3 µM (active)
CN1CCN(NC(=O)c2cccc(F)c2)CC1,AC50,Cytochrome P450 2C19,39.8 µM (inconclusive)
same,AC50,Cytochrome P450 2D6,39.8 µM (inconclusive)
same,AC50,Cytochrome P450 2C9,355 nM (inconclusive)
Cc1noc(C)c1-c1nc(Nc2ccncc2)c2ccccc2n1,AC50,Cytochrome P450 2C19,31.6 µM (inconclusive)
same,AC50,Cytochrome P450 2D6,12.6 µM (inconclusive)
O=C(Oc1ccc(=O)n(-c2ccccc2)n1)c1cccc(Cl)c1,IC50,[2],> 64 µM (inactive)
